Reference: patent US20250188092A1, “RIFAMYCIN ANALOGS” (THE REGENTS OF THE UNIVERSITY OF MICHIGAN, priority 2021, published 2025)
Values after ≈ are worked out from the molar mass of the structure shown. Where two headings read alike, the source gives them in different places.

Assays:
M. tuberculosis H37Rv = assay: Minimum bactericidal concentration (MBC, CFU Assay); format: cell-based, Mycobacterium tuberculosis
E. coli WT RNAP = target: T1, E. coli WT RNAP (Escherichia coli, UniProt P0A8V2); assay: biochemical
T1 construct: made in house

VERO cells (ATCC CRL-81) = assay: Vero cell toxicity; format: cell-based; conditions: 72 hours exposure
Protocol: Cytotoxicity for a mammalian cell line was determined by exposing VERO cells (ATCC CRL-81) to serial dilutions of test compounds for 72 hours, followed by addition of resazurin and measurement of fluorescence after 4 hours incubation (Choules, et al., Antimnicrob. Agents Chemother. 2019, 63, e02204-02218).

MTB H37Rv ATCC 27294 = assay: MIC, microplate Alamar Blue assay (MABA); format: cell-based, Mycobacterium tuberculosis; conditions: for MIC90: MTB H37Rv ATCC 27294, microplate Alamar Blue assay, lowest concentration giving ≥90% reduction in fluorescence
[1] = target: T2, E. coli D516V (RIF^R) RNAP (Escherichia coli, UniProt P0A8V2, D516V); assay: biochemical
T2 construct: made in house

[2] = target: T3, E. coli S531L (RIF^R) RNAP (Escherichia coli, UniProt P0A8V2, S531L); assay: biochemical
T3 construct: made in house

[3] = target: T4, human pregnane X receptor (hPXR) (Homo sapiens, UniProt O75469)
T4 sequence (O75469 1-434): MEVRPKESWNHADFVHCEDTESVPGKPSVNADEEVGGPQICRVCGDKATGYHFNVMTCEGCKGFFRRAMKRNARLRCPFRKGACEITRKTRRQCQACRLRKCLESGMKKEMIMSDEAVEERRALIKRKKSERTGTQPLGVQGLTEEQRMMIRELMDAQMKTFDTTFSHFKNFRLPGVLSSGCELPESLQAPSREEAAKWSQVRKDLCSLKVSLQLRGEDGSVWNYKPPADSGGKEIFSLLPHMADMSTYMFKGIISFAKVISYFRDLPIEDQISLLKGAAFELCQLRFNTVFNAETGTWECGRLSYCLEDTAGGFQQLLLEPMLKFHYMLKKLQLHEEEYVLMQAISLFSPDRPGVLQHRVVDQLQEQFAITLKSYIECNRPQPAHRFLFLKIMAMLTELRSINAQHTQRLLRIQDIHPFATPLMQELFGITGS

WT MTB RNAP = target: T5, WT MTB RNAP (Mycobacterium tuberculosis, UniProt P9WGY9); format: biochemical; conditions: lower limit of detection ~5 nM
T5 construct: made in house; host or cells: E. coli BL21(DE3)

CYP 3A4 = conditions: human, 24 h

SMILES	IC50 (VERO cells (ATCC CRL-81))	MIC90 MABA Rel to RMP (MTB H37Rv ATCC 27294)	MIC90 (MTB H37Rv ATCC 27294)	DPX2 Viability @ 6.25 μM (DPX2 cells)	DPX2 Viability @ 25 μM (DPX2 cells)	hPXR Fold Act. (lucif) @ 6.25 μM [3]	hPXR Fold Act. (lucif) @ 25 μM [3]	IC50 (WT MTB RNAP)	also measured
CO[C@H]1/C=C/O[C@@]2(C)Oc3c(C)c(O)c4c(=O)c(c5oc6cc(N7CCN(CC(C)C)CC7)cc(OCc7ccc(CN8CCN(C(=O)CN9CCOCC9)CC8)cc7)c6nc-5c4c3C2=O)NC(=O)/C(C)=C\C=C\[C@H](C)[C@H](O)[C@@H](C)[C@@H](O)[C@@H](C)[C@H](OC(C)=O)[C@@H]1C [Compound 17d, (7S,9E,11S,12R,13S,14R,15R,16R,17S,18S,19E,21Z)-2,15,17-Trihydroxy-11-methoxy-3,7,12,14,16,18,22-heptamethyl-30-[4-(2-methylpropyl)piperazin-1-yl]-32-{[4-({4-[2-(morpholin-4-yl)acetyl]piperazin-1-yl}methyl)phenyl]methoxy}-6,23,37-trioxo-8,27,38-trioxa-24,34-diazahexacyclo[23.11.1.1^4,7.0^5,36.0^26,35.0^28,33]octatriaconta-1(36)2,4,9,19,21,25,28,30,32,34-undecaen-13-yl acetate]	–	–	–	–	–	–	–	–	MBC99 Day 7 (CFU Assay) MBC99 Rel to RMP (M. tuberculosis H37Rv; CFU Assay MBC99 relative to rifampin (RMP = 1)): 0.15; MBC (M. tuberculosis H37Rv; Mycobacterium tuberculosis, 168 h, Day 7, M. tuberculosis H37Rv, ≥99% reduction in colony forming units, read-out: MBC99 Day 7 (CFU Assay) MBC99): 0.02 µM; IC50 (E. coli WT RNAP): 0.016 µM; IC50 (VERO cells (ATCC CRL-81); Chlorocebus sabaeus, Vero): > 8 µM; MIC90 (MTB H37Rv ATCC 27294; Mycobacterium tuberculosis): < 0.016 µM; IC50 [1]: 7.3 µM; DPX2 Viability @ 6.25 μM (DPX2 cells; 6.25 μM, 24 h): 104%; DPX2 Viability @ 25 μM (DPX2 cells; human): 84%; IC50 [2]: 32 µM
CO[C@H]1/C=C/O[C@@]2(C)Oc3c(C)c(O)c4c(=O)c(c5oc6cc(N7CCC(CC(=O)O)CC7)cc(OCc7ccc(CN8CCOCC8)cc7)c6nc-5c4c3C2=O)NC(=O)/C(C)=C\C=C\[C@H](C)[C@H](O)[C@@H](C)[C@@H](O)[C@@H](C)[C@H](OC(C)=O)[C@@H]1C [Compound 17l, 2-{1-[(7S,9E,11S,12R,13S,14R,15R,16R,17S,18S,19E,21Z)-13-(acetyloxy)-2,15,17-trihydroxy-11-methoxy-3,7,12,14,16,18,22-heptamethyl-32-{[4-(morpholin-4-ylmethyl)phenyl]methoxy}-6,23,37-trioxo-8,27,38-trioxa-24,34-diazahexacyclo-[23.11.1.1^4,7.0^5,36.0^26,35.0^28,33]octatriaconta-1,3,5(36)9,19,21,25,28,30,32,34-undecaen-30-yl]piperidin-4-yl)acetic acid]	> 10 µM	7.0	0.187 µM (≈ 0.212 µg/mL)	107%	102%	1.1 fold	1.9 fold	0.013 µM	–
CO[C@H]1/C=C/O[C@@]2(C)Oc3c(C)c(O)c4c(=O)c(c5oc6cc(N7CCN(C(=O)c8cccc(-c9ccccn9)c8)CC7)cc(OCc7ccc(CN8CCOCC8)cc7)c6nc-5c4c3C2=O)NC(=O)/C(C)=C\C=C\[C@H](C)[C@H](O)[C@@H](C)[C@@H](O)[C@@H](C)[C@H](OC(C)=O)[C@@H]1C [Compound 17r, (7S,9E,11S,12R,13S,14R,15R,16R,17S,18S,19E,21Z)-2,15,17-trihydroxy-11-methoxy-3,7,12,14,16,18,22-heptamethyl-32-{[4-(morpholin-4-ylmethyl)phenyl]methoxy}-6,23,37-trioxo-30-(4-{[3-(pyridin-2-yl)phenyl]carbonyl}piperazin-1-yl)-8,27,38-trioxa-24,34-diazahexacyclo[23.11.1.1^4,7.0^5,36.0^26,35.0^28,33]octatriaconta-1,3,5(36)9,19,21,25,28,30,32,34-undecaen-13-yl acetate]	> 10 µM	0.46	0.023 µM	105%	94%	1 fold	1 fold	0.0098 µM	–
CO[C@H]1/C=C/O[C@@]2(C)Oc3c(C)c(O)c4c(=O)c(c5oc6cc(N7CCN(C(=O)c8ccc(-c9ccc(C(N)=O)cc9)cc8)CC7)cc(OCc7ccc(CN8CCOCC8)cc7)c6nc-5c4c3C2=O)NC(=O)/C(C)=C\C=C\[C@H](C)[C@H](O)[C@@H](C)[C@@H](O)[C@@H](C)[C@H](OC(C)=O)[C@@H]1C [Compound 17t, (7S,9E,11S,12R,13S,14R,15R,16R,17S,18S,19E,21Z)-30-(4-{[4-(4-carbamoylphenyl)-phenyl]carbonyl}piperazin-1-yl)-2,15,17-trihydroxy-11-methoxy-3,7,12,14,16,18,22-heptamethyl-32-{[4-(morpholin-4-ylmethyl)phenyl]methoxy}-6,23,37-trioxo-8,27,38-trioxa-24,34-diazahexacyclo[23.11.1.1^4,7.0^5,36.0^26,35.0^28,33]octatriaconta-1,3,5(36)9,19,21,25,28,30,32,34-undecaen-13-yl acetate]	55 µM	0.6	0.032 µM	–	–	–	–	–	DPX2 Viability @ 6.25 μM (DPX2 cells; 6.25 μM, 24 h): 100%; hPXR Fold Act. (lucif) @ 6.25 μM ([3]; 6.25 μM, 24 h): 1.3 fold; hPXR Fold Act. (lucif) @ 25 μM ([3]; 25 μM, 24 h): 2.1 fold
CO[C@H]1/C=C/O[C@@]2(C)Oc3c(C)c(O)c4c(=O)c(c5oc6cc(N7CCC(CC(=O)O)CC7)cc(N7CCC(CC(=O)O)CC7)c6nc-5c4c3C2=O)NC(=O)/C(C)=C\C=C\[C@H](C)[C@H](O)[C@@H](C)[C@@H](O)[C@@H](C)[C@H](OC(C)=O)[C@@H]1C [Compound 17v, 2-{1-[(7S,9E,11S,12R,13S,14R,15R,16R,17S,18S,19E,21Z)-13-(acetyloxy)-32-[4-(carboxymethyl)piperidin-1-yl]-2,15,17-trihydroxy-11-methoxy-3,7,12,14,16,18,22-heptamethyl-6,23,37-trioxo-8,27,38-trioxa-24,34-diazahexacyclo-[23.11.1.1^4,7.0^5,36.0^26,35.0^28,33]octatriaconta-1,3,5(36)9,19,21,25,28,30,32,34-undecaen-30-yl]piperidin-4-yl)acetic acid]	> 10 µM	–	–	110%	100%	1.2 fold	1.6 fold	0.027 µM	–
CO[C@H]1/C=C/O[C@@]2(C)Oc3c(C)c(O)c4c(=O)c(c5oc6cc(C)cc(N7CCN(C)CC7)c6nc-5c4c3C2=O)NC(=O)/C(C)=C\C=C\[C@H](C)[C@H](O)[C@@H](C)[C@@H](O)[C@@H](C)[C@H](OC(C)=O)[C@@H]1C [Compound 30a, (7S,9E,11S,12R,13S,14R,15R,16R,17S,18S,19E,21Z)-2,15,17-Trihydroxy-11-methoxy-3,7,12,14,16,18,22,30-octamethyl-32-(4-methylpiperazin-1-yl)-6,23,37-trioxo-8,27,38-trioxa-24,34-diazahexacyclo[23.11.1.1^4,7.0^5,36.0^26,35.0^28,33]octatriaconta-1(36)2,4,9,19,21,25,28,30,32,34-undecaen-13-yl acetate]	> 8 µM	<0.6	<0.016 µM	92%	47%	4.6 fold	20.4 fold	–	–
CO[C@H]1/C=C/O[C@@]2(C)Oc3c(C)c(O)c4c(O)c(c(/C=N/N5CCN(C6CCCC6)CC5)c(O)c4c3C2=O)NC(=O)/C(C)=C\C=C\[C@H](C)[C@H](O)[C@@H](C)[C@@H](O)[C@@H](C)[C@H](OC(C)=O)[C@@H]1C [RFP, rifapentine, reference compound]	–	–	–	–	–	–	–	–	DPX2 Viability @ 6.25 μM (DPX2 cells; human, 24 h, 6.25 μM): 104%; DPX2 Viability @ 25 μM (DPX2 cells; human, 24 h, 25 μM): 105%; hPXR Fold Act. (CYP 3A4) @ 6.25 μM (CYP 3A4; 6.25 μM): 20.3 fold; hPXR Fold Act. (CYP 3A4) @ 25 μM (CYP 3A4; 25 μM): 20.5 fold
